According to patent US11325938B2, “CD73 inhibitors” (ORIC Pharmaceuticals, Inc., priority 2018, dated 2022):

Biological target: CD73 (Homo sapiens (Human), UniProt P21589)
Experiment: Biochemical assay: inhibition of CD73 activity (AMP hydrolysis, Malachite Green readout)
Settings: CD73 0.3208 nM, AMP 15 μM, 25 mM Tris-HCl pH 7.4, RT, absorbance 620 nm
Outline: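 Human CD73 (320 pM final) preincubated 15 min at RT with compounds (10-point ½-log titration from 100 μM, duplicates) in 25 mM Tris-HCl pH 7.4, 5 mM MgCl2, 0.01% Brij-35, 0.01% BSA. 15 μM AMP added, 10 min at RT; released phosphate read by Malachite Green absorbance; IC50 determined.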

Chain of CD73 (P21589 27-574): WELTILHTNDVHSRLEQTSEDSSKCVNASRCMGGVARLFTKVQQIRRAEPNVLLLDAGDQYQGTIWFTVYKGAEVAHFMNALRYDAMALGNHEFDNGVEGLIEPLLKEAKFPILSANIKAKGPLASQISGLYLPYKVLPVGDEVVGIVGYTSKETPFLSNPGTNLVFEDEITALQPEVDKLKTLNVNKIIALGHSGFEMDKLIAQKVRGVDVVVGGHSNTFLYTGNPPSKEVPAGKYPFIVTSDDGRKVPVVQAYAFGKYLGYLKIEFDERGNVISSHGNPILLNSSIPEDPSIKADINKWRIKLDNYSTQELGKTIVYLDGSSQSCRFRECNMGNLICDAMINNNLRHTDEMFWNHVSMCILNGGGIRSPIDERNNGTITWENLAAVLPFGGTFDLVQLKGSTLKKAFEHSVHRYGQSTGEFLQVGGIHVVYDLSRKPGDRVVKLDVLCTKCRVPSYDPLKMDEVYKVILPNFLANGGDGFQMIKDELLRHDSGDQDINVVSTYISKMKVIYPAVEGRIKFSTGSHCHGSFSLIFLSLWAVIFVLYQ

SMILES | IC50
CCOCC(COCC)(OC[C@H]1O[C@@H](n2ncc3c(NC4CCCC4)nc(Cl)nc32)[C@H](O)[C@@H]1O)P(=O)(O)O (racemic) [Example 185, rac-(2-(((2R,3S,4R,5R)-5-(6-chloro-4-(cyclopentylamino)-1H-pyrazolo[3,4-d]pyrimidin-1-yl)-3,4-dihydroxytetrahydrofuran-2-yl)methoxy)-1,3-diethoxypropan-2-yl)phosphonic acid] | ≤ 100 nM
COCC(C)(OC[C@@H]1C[C@@H](O)[C@H](n2ncc3c(NC4CCCC4)nc(Cl)nc32)O1)P(=O)(O)O (stereo partly drawn) [Example 70, (2-(((2S,4R,5R)-5-(6-chloro-4-(cyclopentylamino)-1H-pyrazolo[3,4-d]pyrimidin-1-yl)-4-hydroxytetrahydrofuran-2-yl)methoxy)-1-methoxypropan-2-yl)phosphonic acid] | 100 to 1000 nM
CCP(=O)(O)C(CO)(CO)OC[C@H]1O[C@@H](n2ncc3c(NC4CCCC4)nc(Cl)nc32)[C@H](O)[C@@H]1O [Example 112, (2-(((2R,3S,4R,5R)-5-(6-chloro-4-(cyclopentylamino)-1H-pyrazolo[3,4-d]pyrimidin-1-yl)-3,4-dihydroxytetrahydrofuran-2-yl)methoxy)-1,3-dihydroxypropan-2-yl)(ethyl)phosphinic acid] | 100 to 1000 nM
NC(=O)OC[C@@](CO)(OC[C@H]1O[C@@H](n2ncc3c(NC4CCCC4)nc(Cl)nc32)[C@H](O)[C@@H]1O)P(=O)(O)O (racemic) [Example 215, rac-((R)-1-(carbamoyloxy)-2-(((2S,3R,4S,5S)-5-(6-chloro-4-(cyclopentylamino)-1H-pyrazolo[3,4-d]pyrimidin-1-yl)-3,4-dihydroxytetrahydrofuran-2-yl)methoxy)-3-hydroxypropan-2-yl)phosphonic acid] | ≤ 100 nM
COCC(OC[C@H]1O[C@@H](n2nnc3c(NC4CCCC4)nc(Cl)nc32)[C@H](O)[C@@H]1O)P(=O)(O)O (stereo partly drawn) [Example 142, (1-(((2R,3S,4R,5R)-5-(5-chloro-7-(cyclopentylamino)-3H-[1,2,3]triazolo[4,5-d]pyrimidin-3-yl)-3,4-dihydroxytetrahydrofuran-2-yl)methoxy)-2-methoxyethyl)phosphonic acid] | ≤ 100 nM
C[C@@](CO)(OC[C@H]1O[C@@H](n2ncc3c(N[C@@H]4CCc5ccc(F)cc54)nc(Cl)nc32)[C@H](O)[C@@H]1O)P(=O)(O)O [Example 99, ((R)-2-(((2R,3S,4R,5R)-5-(6-chloro-4-(((R)-6-fluoro-2,3-dihydro-1H-inden-1-yl)amino)-1H-pyrazolo[3,4-d]pyrimidin-1-yl)-3,4-dihydroxytetrahydrofuran-2-yl)methoxy)-1-hydroxypropan-2-yl)phosphonic acid] | ≤ 100 nM
O=P(O)(O)COC[C@H]1O[C@@H](n2nnc3c(NC4CCCC4)nc(Cl)cc32)[C@H](O)[C@@H]1O [Example 20, ((((2R,3S,4R,5R)-5-(6-chloro-4-(cyclopentylamino)-1H-[1,2,3]triazolo[4,5-c]pyridin-1-yl)-3,4-dihydroxytetrahydrofuran-2-yl)methoxy)methyl)phosphonic acid] | 100 to 1000 nM
CC(CO)(OC[C@H]1O[C@@H](n2ccc3c(NC4CCCC4)nc(Cl)nc32)[C@H](O)[C@@H]1O)P(=O)(O)O (stereo partly drawn) [Example 91, (2-(((2R,3S,4R,5R)-5-(2-Chloro-4-(cyclopentylamino)-7H-pyrrolo[2,3-d]pyrimidin-7-yl)-3,4-dihydroxytetrahydrofuran-2-yl)methoxy)-1-hydroxypropan-2-yl)phosphonic acid] | ≤ 100 nM
COC[C@@](C)(OC[C@H]1O[C@@H](n2ncc3c(NC4CCCC4)nc(Cl)nc32)[C@H](O)[C@@H]1O)P(=O)(O)O [Example 65, ((S)-2-(((2R,3S,4R,5R)-5-(6-chloro-4-(cyclopentylamino)-1H-pyrazolo[3,4-d]pyrimidin-1-yl)-3,4-dihydroxytetrahydrofuran-2-yl)methoxy)-1-methoxypropan-2-yl)phosphonic acid] | ≤ 100 nM
C[C@](CO)(OC[C@H]1O[C@@H](n2ncc3c(NC4CC5(CCC5)C4)nc(Cl)nc32)[C@H](O)[C@@H]1O)P(=O)(O)O [Example 123, ((S)-2-(((2R,3S,4R,5R)-5-(6-chloro-4-(spiro[3.3]heptan-2-ylamino)-1H-pyrazolo[3,4-d]pyrimidin-1-yl)-3,4-dihydroxytetrahydrofuran-2-yl)methoxy)-1-hydroxypropan-2-yl)phosphonic acid] | ≤ 100 nM
CC(CO)(P(=O)(O)O)S(=O)(=O)C[C@H]1O[C@@H](n2ncc3c(NC4CCCC4)nc(Cl)nc32)[C@H](O)[C@@H]1O (stereo partly drawn) [Example 8, (2-((((2S,3S,4R,5R)-5-(6-Chloro-4-(cyclopentylamino)-1H-pyrazolo[3,4-d]pyrimidin-1-yl)-3,4-dihydroxytetrahydrofuran-2-yl)methyl)sulfonyl)-1-hydroxypropan-2-yl)phosphonic acid] | ≤ 100 nM
O=P(O)(O)CP(=O)(O)OC[C@H]1O[C@@H](n2nnc3c(NC4CCCC4)cc(Cl)nc32)[C@H](O)[C@@H]1O [Example 53, (((((2R,3S,4R,5R)-5-(5-chloro-7-(cyclopentylamino)-3H-[1,2,3]triazolo[4,5-b]pyridin-3-yl)-3,4-dihydroxytetrahydrofuran-2-yl)methoxy)(hydroxy)phosphoryl)methyl)phosphonic acid] | ≤ 100 nM
CC(C)(O)C#Cc1nc(NC2CCCC2)c2cnn([C@@H]3O[C@H](COC(C)(CO)P(=O)(O)O)[C@@H](O)[C@H]3O)c2n1 (mixture of isomers) [Example 192, rac-(2-(((2R,3S,4R,5R)-5-(4-(cyclopentylamino)-6-(3-hydroxy-3-methylbut-1-yn-1-yl)-1H-pyrazolo[3,4-d]pyrimidin-1-yl)-3,4-dihydroxytetrahydrofuran-2-yl)methoxy)-1-hydroxypropan-2-yl)phosphonic acid] | ≤ 100 nM
O=P(O)(O)C(CO)(Cc1ccccn1)OC[C@H]1O[C@@H](n2ncc3c(NC4CCCC4)nc(Cl)nc32)[C@H](O)[C@@H]1O (stereo partly drawn) [Example 93, (2-(((2R,3S,4R,5R)-5-(6-chloro-4-(cyclopentylamino)-1H-pyrazolo[3,4-d]pyrimidin-1-yl)-3,4-dihydroxytetrahydrofuran-2-yl)methoxy)-1-hydroxy-3-(pyridin-2-yl)propan-2-yl)phosphonic acid] | ≤ 100 nM
CCOCC(C)(OC[C@H]1O[C@@H](n2ncc3c(NC4CCCC4)nc(Cl)nc32)[C@H](O)[C@@H]1O)P(=O)(O)O (stereo partly drawn) [Example 156, (2-(((2R,3S,4R,5R)-5-(6-chloro-4-(cyclopentylamino)-1H-pyrazolo[3,4-d]pyrimidin-1-yl)-3,4-dihydroxytetrahydrofuran-2-yl)methoxy)-1-ethoxypropan-2-yl)phosphonic acid] | ≤ 100 nM
C[C@@](CO)(OC[C@H]1O[C@@H](n2ncc3c(NC4CCCC4)nc(CO)nc32)[C@H](O)[C@@H]1O)P(=O)(O)O [Example 128, ((R)-2-(((2R,3S,4R,5R)-5-(4-(cyclopentylamino)-6-(hydroxymethyl)-1H-pyrazolo[3,4-d]pyrimidin-1-yl)-3,4-dihydroxytetrahydrofuran-2-yl)methoxy)-1-hydroxypropan-2-yl)phosphonic acid] | ≤ 100 nM
CCOC(=O)C(OC[C@H]1O[C@@H](n2ncc3c(NC4CCCC4)nc(Cl)nc32)[C@H](O)[C@@H]1O)P(=O)(O)O (stereo partly drawn) [Example 1, (1-(((2R,3S,4R,5R)-5-(6-Chloro-4-(cyclopentylamino)-1H-pyrazolo[3,4-d]pyrimidin-1-yl)-3,4-dihydroxytetrahydrofuran-2-yl)methoxy)-2-ethoxy-2-oxoethyl)phosphonic acid] | ≤ 100 nM
C[C@@](CO)(OC[C@H]1O[C@@H](n2ncc3c(NC4CCCC4)cc(Cl)nc32)[C@H](O)[C@@H]1O)P(=O)(O)O (racemic) [Example 194, rac-((R)-2-(((2R,3S,4R,5R)-5-(6-chloro-4-(cyclopentylamino)-1H-pyrazolo[3,4-b]pyridin-1-yl)-3,4-dihydroxytetrahydrofuran-2-yl)methoxy)-1-hydroxypropan-2-yl)phosphonic acid] | ≤ 100 nM
C[C@@](COCCO)(OC[C@H]1O[C@@H](n2ncc3c(NC4CCCC4)nc(Cl)nc32)[C@H](O)[C@@H]1O)P(=O)(O)O [Example 124, ((R)-2-(((2R,3S,4R,5R)-5-(6-chloro-4-(cyclopentylamino)-1H-pyrazolo[3,4-d]pyrimidin-1-yl)-3,4-dihydroxytetrahydrofuran-2-yl)methoxy)-1-(2-hydroxyethoxy)propan-2-yl)phosphonic acid] | ≤ 100 nM
O=P(O)(O)C(CO)OC[C@H]1O[C@@H](n2ccc3c(NC4CCCC4)nc(Cl)nc32)[C@H](O)[C@@H]1O (stereo partly drawn) [Example 117, (1-(((2R,3S,4R,5R)-5-(2-chloro-4-(cyclopentylamino)-7H-pyrrolo[2,3-d]pyrimidin-7-yl)-3,4-dihydroxytetrahydrofuran-2-yl)methoxy)-2-hydroxyethyl)phosphonic acid] | ≤ 100 nM
O=P(O)(O)[C@@H](CO)OC[C@H]1O[C@@H](n2ncc3c(NC4CCCC4)nc(Cl)nc32)[C@H](O)[C@@H]1O (single isomer, unassigned) [Example 3] | ≤ 100 nM
Cn1cnc(CC(CO)(OC[C@H]2O[C@@H](n3ncc4c(NC5CCCC5)nc(Cl)nc43)[C@H](O)[C@@H]2O)P(=O)(O)O)c1 (stereo partly drawn) [Example 94, (2-(((2R,3S,4R,5R)-5-(6-chloro-4-(cyclopentylamino)-1H-pyrazolo[3,4-d]pyrimidin-1-yl)-3,4-dihydroxytetrahydrofuran-2-yl)methoxy)-1-hydroxy-3-(1-methyl-1H-imidazol-4-yl)propan-2-yl)phosphonic acid] | 100 to 1000 nM
O=P(O)(O)[C@](CO)(Cc1nn[nH]n1)OC[C@H]1O[C@@H](n2ncc3c(NC4CCCC4)nc(CO)nc32)[C@H](O)[C@@H]1O (racemic) [Example 217, rac-((R)-2-(((2S,3R,4S,5S)-5-(4-(cyclopentylamino)-6-(hydroxymethyl)-1H-pyrazolo[3,4-d]pyrimidin-1-yl)-3,4-dihydroxytetrahydrofuran-2-yl)methoxy)-1-hydroxy-3-(2H-tetrazol-5-yl)propan-2-yl)phosphonic acid] | ≤ 100 nM
